Assay results reported in patent publication US7704756B2, “Fluorogenic dyes” (Novartis Vaccines and Diagnostics, Inc., priority 2003, dated 2010).

Columns and labels:
[1] = pH 7.5 buffer
Protocol: An experiment was conducted to test the ability of compound 12 to respond to reducing conditions. Two incubations were performed: in the first, a control incubation, a sample of compound 12 was added to pH 7.5 buffer. In a second incubation (+DTT), the same amount of compound 12 was added to pH 7.5 buffer and then DTT was added to a final concentration of 10 mM.

[2] = Reporter selectively fluorescent under reducing conditions (DTT versus control buffer); type: physicochemical; conditions: compound 9 at 50 mM
Protocol: An experiment was conducted to determine the effect of reducing conditions versus non-reducing conditions on a reporter compound according to the invention (compound 9). Two incubations were conducted with compound 9 at a concentration of 50 mM. A control incubation was conducted which compared the same molar concentration of compound 9 in 10 mM Na phosphate at pH 7.5. A reducing reaction composition was made comprising the same buffer, and 10 mM dithiothreitol (DTT). […] For this example, synthesis of compound was conducted as previously described.

In the case of “5(6)-Carboxy-2′,7′-dichloro-3′,6′-bis(2′″-trimethylammonium(ethanedithio))fluorescein [compound 12]”, the “colour of solution after addition of DTT (formation of free dichlorodithiofluorescein dye)” value ([1]; DTT 10 mM final, within one minute after addition) was “turned light blue” and the “colour of control incubation” value ([1]; no DTT) was “remained colorless”.

For `CC(=O)O.CC(C)(CCSSCC[N+](C)(C)C)C(=O)Oc1ccc2c(c1)Oc1cc(OC(=O)C(C)(C)CCSSCC[N+](C)(C)C)ccc1C21OC(=O)c2ccccc21` [compound 9, Bis(4-(2′-(trimethylamino)ethanedithio)-2,2-dimethylbutyryl)carboxyfluorescein], the “mass spectrometry analysis of content of DTT containing reaction” value ([2]; 10 mM Na phosphate pH 7.5, 10 mM DTT) was “only fluorescein”, the “fluorescence under reducing conditions” value ([2]; 10 mM Na phosphate pH 7.5, 10 mM dithiothreitol (DTT), after one minute at room temperature) was “strong green fluorescence” and the “mass spectrometry analysis of content of control reaction” value ([2]; 10 mM Na phosphate pH 7.5, no DTT) was “only compound 9”.
